Data from patent publication US20210128566A1, “NOVEL FUNCTIONALIZED PURINE-2,6-DIONES AND THEIR USE IN MEDICINE” (THOMAS HELLEDAYS STIFTELSE FÖR MEDICINSK FORSKNING, priority 2017, published 2021).

Columns and labels:
[1] = biological target: recombinant human NUDT5 (Homo sapiens, UniProt Q9UKK9); assay: NUDT5 inhibitor activity by malachite green reporter assay; type: biochemical; conditions: 6 nM NUDT5, 50 μM ADP-Ribose, 15 minutes at room temperature
In short: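 Coupled ADP-ribose hydrolysis in 10 mM Tris-acetate pH 8.0, 40 mM NaCl, 10 mM Mg acetate, 0.005% Tween-20, 1 mM DTT: 6 nM NUDT5, 50 μM ADP-Ribose, 10 U/ml alkaline phosphatase, 15 min at room temperature. Pi read by malachite green at 630 nm; compounds 100 μM–1.7 nM, 3-fold; IC50 by curve fit.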

[2] = test system: T47D^WT cells; assay: Nuclear-targeted luciferase reporter of nuclear ATP production after R5020 stimulation; type: cell-based; conditions: hormone-starved T47D^WT cells, compound for two hours, then R5020; Compound 19 at 1.5 μM, Compounds 16/17 at 15 μM
Experimental: Top, a representative measurement of bioluminescence intensity over 60 minutes of R5020 treatment; bottom, box-and-whisker plots of bioluminescence quantitations from six independent experiments (center line, median; box limits, upper and lower quartiles; whiskers, minima and maxima; individual data points also shown). ns—not significant, *—p<0.05, **—p<0.01, ***—p<0.001; repeated measures two-way ANOVA analysis.
In HR+ breast cancer cells, NUDT5 activity is required to produce ATP in the nucleus following hormone stimulation (Wright, R. H. G. et al., Science, 352, 1221-1225 (2016)). A nuclear-targeted luciferase reporter system was employed to monitor ATP production after hormone stimulation.
Hormone-starved T47D^WT cells were treated with example compounds as described herein for two hours and then stimulated with the progesterone receptor agonist, R5020, for the time points indicated.

Row | Compound | IC50 ([1]; Table 4) [µM] | IC50 ([1]; Table 3) [µM] | nuclear luminescence (nuclear ATP production) [2]
1 | CCCCN1CCN(c2nc3c(c(=O)n(C)c(=O)n3C)n2Cc2nnc(-c3ccc(Cl)c(Cl)c3)o2)CC1 [Example 16, 8-(4-butylpiperazin-1-yl)-7-{[5-(3,4-dichlorophenyl)-1,3,4-oxadiazol-2-yl]methyl}-1,3-dimethyl-2,3,6,7-tetrahydro-1H-purine-2,6-dione] |  | 0.0538 | Strong luminescence
2 | CCN1CCN(c2nc3c(c(=O)n(C)c(=O)n3C)n2Cc2nnc(-c3ccc(Cl)c(Cl)c3)o2)CC1 [Example 17, 7-{[5-(3,4-dichlorophenyl)-1,3,4-oxadiazol-2-yl]methyl}-8-(4-ethylpiperazin-1-yl)-1,3-dimethyl-2,3,6,7-tetrahydro-1H-purine-2,6-dione] |  | 0.039 | Strong luminescence
3 | Cn1c(=O)c2c(nc(N3CCNCC3)n2Cc2nnc(-c3ccc(Cl)c(Cl)c3)o2)n(C)c1=O [Example 19, 7-{[5-(3,4-dichlorophenyl)-1,3,4-oxadiazol-2-yl]methyl}-1,3-dimethyl-8-(piperazin-1-yl)-2,3,6,7-tetrahydro-1H-purine-2,6-dione] |  | 0.0291 | reduced nuclear luminescence

Second part, led by results:

Row | IC50 ([1]; Table 4) [µM] | Compound | IC50 ([1]; Table 3) [µM] | nuclear luminescence (nuclear ATP production) [2]
4 | 0.0492 | COc1cc(-c2nnc(Cn3c(SCCN)nc4c3c(=O)n(C)c(=O)n4C)o2)ccc1C [Example 142, 8-[(2-aminoethyl)sulfanyl]-7-{[5-(3-methoxy-4-methylphenyl)-1,3,4-oxadiazol-2-yl]methyl}-1,3-dimethyl-2,3,6,7-tetrahydro-1H-purine-2,6-dione] |  | 
5 | 14 | Cn1c(=O)c2c(nc(Cl)n2Cc2cn(-c3ccc(Cl)c(Cl)c3)nn2)n(C)c1=O [Example 143, 8-chloro-7-{[1-(3,4-dichlorophenyl)-1H-1,2,3-triazol-4-yl]methyl}-1,3-dimethyl-2,3,6,7-tetrahydro-1H-purine-2,6-dione] |  | 
6 | 0.155 | Cn1c(=O)c2c(nc(N3CCNCC3)n2Cc2cn(-c3ccc(Cl)c(Cl)c3)nn2)n(C)c1=O [Example 144, 7-{[1-(3,4-dichlorophenyl)-1H-1,2,3-triazol-4-yl]methyl}-1,3-dimethyl-8-(piperazin-1-yl)-2,3,6,7-tetrahydro-1H-purine-2,6-dione] |  | 
